The results in this text go back to EP0497740B1, “Benzyloxyphenyl derivatives” (SANDOZ LTD., priority 1991, dated 1992).

Molecules are shown by their SMILES.

The subject of test [1] is oxazolone-induced allergic contact dermatitis. Kind of test: Inhibition of oxazolone-induced allergic contact dermatitis in the mouse (pinnal swelling, topical application). In kind it is in vivo. The note with it: test 3: mouse, two applications, concentration of 0.4 %, relative to vehicle (ethanol/acetone 7:3). On the procedure: 3. Inhibition of oxazolone-induced allergic contact dermatitis in the mouse
Sensitization is induced by a single application of 2 % 6 oxazolone (10 µl) onto the abdominal skin of mice (8 animals per group). Hypersensitivity reaction causing pinnal swelling is elicited by a second exposure to 2 % oxazolone applied to one pinna of each animal after 8 days.
Inhibition of pinnal swelling is achieved by two topical applications of test compound (30 minutes before and after elicitation of the challenge reaction). Efficacy is determined by the difference of pinnal weights of animals treated with the drug and with the vehicle (ethanol/acetone 7:3), respectively, and expressed in % of swelling with vehicle application alone.

In the next test the test system is HACAT keratinocytes. Kind of test: Inhibition of TGFa- or EGF-specific proliferation of HACAT keratinocytes (3H-thymidine incorporation). In kind it is cell-based. The note with it: test 1: HaCaT cells stimulated with recombinant human TGFa or EGF, two days. As for the experimental part:
1. Inhibition of TGFa- or EGF-specific proliferation of HACAT keratinocytes:
The spontaneously immortalized aneuploid human keratinocyte HaCaT cell line, which has a transformed phenotype in vitro but remains non-tumorigenic, is grown in DMEM H21 medium supplemented with 5 % FCS and 2.5 % glutamine. 5 ml aliquots of a cell suspension adjusted to 2 x 10^5 cells/ml are seeded into 50 ml culture flasks and the cells are cultured for 2 to 3 days in DMEM medium supplemented with 5 % FCS. When 90-100 % confluence is attained cells are trypsinized, washed, suspended in KBM medium supplemented with 0.2 % dialyzed FCS (Gibco) and Ca^++ to a final concentration of 0.06 mM, and 2 x 10^4 cells are seeded into 96 wells cell culture plates. Proliferation is stimulated with recombinant human TGFa or EGF (reconstituted in 0.1 M acetic acid) at various concentrations in the presence of inhibitors. Cells are grown for two days at 37 / 5 % CO2. During the last 16 hours incorporation of ^3H-thymidine (1 µ.Ci/well) is performed. Cells are washed with ice-cold PBSdef. 3 times and trichloroacetic acid twice, solubilized in 100 µl of 0.1 N NaOH containing 1 % SDS, and radioactivity is counted. Inhibition of cell proliferation is expressed as % of the control.

`COC(=O)c1cc(OCc2cc(OC)ccc2OC)ccc1O` [Example 1, 5-(2,5-Dimethoxybenzyloxy)-2-hydroxybenzoic acid methyl ester] showed an inhibition of swelling in test [1] of 46%. Moreover, in the test with HACAT keratinocytes (Homo sapiens, HaCaT), the IC50 is less than 1 µM.
As to `N#CC(=Cc1ccc(O)c(O)c1)C(N)=S` [AG213], the half-inhibitory concentration (IC50) with HACAT keratinocytes is 5 to 50 µM.
Turning to `O=c1c(-c2ccc(O)cc2)coc2cc(O)cc(O)c12` [genistein], the IC50 with HACAT keratinocytes (Homo sapiens, HaCaT) is 5 to 50 µM; in the test with HACAT keratinocytes it was 5 µM.
